Experiments:
Experiment in all cases: relative viability (nuclei count vs DMSO), 5 days (fraction); higher = more cells survive
[1] = compound: CCOC(=O)CCNc1cc(N2CCc3ccccc3CC2)nc(-c2ccccn2)n1 [GSK-J4] + Cc1nc(NC(=O)N2CCC[C@H]2C(N)=O)sc1-c1ccnc(C(C)(C)C(F)(F)F)c1 [Alpelisib] (partner 2 µM)
In short: (§1)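 Each reported value is a median over duplicate plates. It expresses relative viability: treated-well nuclei count divided by vehicle-well nuclei count. Lung cancer cell lines in 1536-well plates were dosed by pin tool a day after seeding, alone with one drug or with a fixed anchor-drug dose plus five library-drug doses (not always all listed) in √10 steps, and nuclei were counted after 5 days.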

[2] = compound: CCOC(=O)CCNc1cc(N2CCc3ccccc3CC2)nc(-c2ccccn2)n1 [GSK-J4] + O=C(c1cc(Cc2n[nH]c(=O)c3ccccc23)ccc1F)N1CCN(C(=O)C2CC2)CC1 [Olaparib] (partner 8 µM)
In short: as §1

[3] = compound: CN1CCC(CC1)OC2=CC(=C(C=C2)NC3=NC=C4C(=N3)N(C(=O)N4C)C5CCCC5)OC [AZ3146] + CC(C)C[C@H](NC(=O)[C@H](Cc1ccccc1)NC(=O)c1cnccn1)B(O)O [Bortezomib] (partner 0.002 µM)
In short: as §1

[4] = compound: CN1CCC(CC1)OC2=CC(=C(C=C2)NC3=NC=C4C(=N3)N(C(=O)N4C)C5CCCC5)OC [AZ3146] + C[C@]1(O)C[C@@H](c2nc(-c3ccc4ccc(-c5ccccc5)nc4c3)c3c(N)nccn32)C1 [Linsitinib] (partner 1 µM)
In short: as §1

Row | Cell Line | relative viability ([1]; first compound 0.5 µM) | relative viability ([1]; first compound 1.581 µM) | relative viability ([1]; first compound 5 µM) | relative viability ([1]; first compound 15.81 µM) | relative viability ([1]; first compound 50 µM) | relative viability ([2]; first compound 0.5 µM) | relative viability ([2]; first compound 1.581 µM) | relative viability ([2]; first compound 5 µM) | relative viability ([2]; first compound 15.81 µM) | relative viability ([2]; first compound 50 µM) | relative viability ([3]; first compound 0.08 µM) | relative viability ([3]; first compound 0.253 µM) | relative viability ([3]; first compound 0.8 µM) | relative viability ([3]; first compound 2.53 µM) | relative viability ([3]; first compound 8 µM) | relative viability ([4]; first compound 0.08 µM) | relative viability ([4]; first compound 0.253 µM) | relative viability ([4]; first compound 0.8 µM) | relative viability ([4]; first compound 2.53 µM) | relative viability ([4]; first compound 8 µM)
1 | HCC-827 | 0.981 | 1 | 1.02 | 0.915 | 0.939 | 0.622 | 0.65 | 0.767 | 0.589 | 0.36 | 0.933 | 1.07 | 1.11 | 1.09 | 1.09 | 0.907 | 0.889 | 0.946 | 1.02 | 1.01
2 | IA-LM | 0.77 | 0.693 | 0.887 | 0.693 | 0.149 | 0.872 | 0.9 | 0.874 | 0.706 | 0.169 | 0.643 | 0.775 | 0.759 | 0.695 | 0.264 | 0.729 | 0.441 | 0.652 | 0.803 | 0.626
3 | NCI-H3122 | 0.78 | 0.634 | 0.95 | 0.716 | 0.674 | 0.539 | 0.578 | 0.668 | 0.575 | 0.504 | 1.08 | 1 | 0.997 | 0.999 | 1.07 | 1.02 | 1.06 | 1.03 | 1.04 | 1.06
4 | RERF-LC-KJ | 0.65 | 0.732 | 0.803 | 0.744 | 0.551 | 0.867 | 0.928 | 0.867 | 0.814 | 0.484 | 1.07 | 1.15 | 1.24 | 1.04 | 0.98 | 0.904 | 0.902 | 0.972 | 0.876 | 0.896
5 | NCI-H1703 | 0.286 | 0.461 | 0.289 | 0.372 | 0.363 | 0.385 | 0.576 | 0.372 | 0.362 | 0.422 | 0.213 | 0.485 | 0.292 | 0.275 | 0.275 | 0.824 | 1.15 | 0.637 | 0.872 | 0.924
6 | HCC-15 | 0.909 | 0.751 | 0.912 | 0.868 | 0.571 | 0.702 | 0.632 | 0.644 | 0.644 | 0.424 | 1.01 | 1.08 | 1.02 | 1.12 | 1.04 | 0.815 | 0.946 | 0.874 | 0.879 | 0.879
7 | NCI-H1395 | 1.03 | 0.88 | 0.845 | 1.14 | 0.821 | 0.435 | 0.48 | 0.399 | 0.45 | 0.406 |  |  |  |  |  | 0.986 | 1.1 | 1.28 | 1.37 | 1.05
8 | NCI-H1563 | 0.885 | 0.85 | 0.872 | 0.891 | 1.02 |  |  |  |  |  | 0.703 | 0.82 | 0.826 | 1.01 | 0.77 | 1.09 | 1.36 | 1.15 | 1.24 | 1.35
9 | LK-2 | 1.04 | 1.08 | 1.41 | 1.3 | 1.23 | 0.675 | 0.628 | 0.98 | 0.592 | 0.364 |  |  |  |  |  | 0.672 | 0.645 | 0.562 | 0.519 | 0.729
10 | NCI-H1650 |  |  |  |  |  | 0.852 | 0.739 | 0.871 | 0.639 | 0.509 | 0.204 | 0.226 | 0.205 | 0.168 | 0.2 |  |  |  |  | 
11 | SW 900 |  |  |  |  |  | 0.903 | 0.935 | 1.15 | 0.797 | 0.549 |  |  |  |  |  |  |  |  |  | 
12 | NCI-H1648 |  |  |  |  |  | 0.869 |  | 1.44 |  | 0.793 |  |  |  |  |  |  |  |  |  | 
13 | A549 | 0.765 | 0.578 | 0.669 | 0.823 | 0.691 | 0.32 |  | 0.29 | 0.31 | 0.392 |  |  |  |  |  | 0.653 | 0.653 | 0.593 | 0.571 | 0.51
14 | ChaGo-K-1 |  |  |  |  |  | 0.384 |  | 0.441 | 0.354 | 0.275 | 0.93 | 0.837 | 0.932 | 0.961 | 0.738 |  |  |  |  | 
15 | SK-MES-1 | 0.783 | 0.968 | 0.842 | 0.805 | 0.819 | 0.675 | 0.641 | 0.727 | 0.626 | 0.22 |  |  |  |  |  | 1.06 | 1.06 | 1.01 | 1.09 | 1.12
16 | NCI-H2170 | 0.787 | 0.803 | 0.878 | 0.781 | 0.713 | 0.533 | 0.538 | 0.652 | 0.536 | 0.391 |  |  |  |  |  |  |  |  |  | 
17 | NCI-H2342 |  |  |  |  |  | 0.368 | 0.427 | 0.501 | 0.431 | 0.476 |  |  |  |  |  |  |  |  |  | 
18 | NCI-H522 |  |  |  |  |  | 0.597 | 0.552 |  | 0.531 | 0.409 |  |  |  |  |  |  |  |  |  | 
19 | NCI-H1944 | 0.833 | 0.709 | 0.964 | 0.897 | 0.822 | 0.389 | 0.373 |  | 0.376 | 0.358 |  |  |  |  |  |  | 1.11 | 1.14 | 1.21 | 1.35
20 | NCI-H358 | 0.868 | 0.639 | 0.98 | 0.876 | 0.773 | 0.574 |  | 0.646 | 0.521 | 0.552 |  |  |  |  |  | 0.868 | 0.744 | 0.65 | 0.75 | 0.461
21 | NCI-H1793 | 0.79 | 0.737 | 0.715 | 0.602 | 0.275 | 0.751 | 0.634 | 0.482 | 0.201 | 0.145 |  |  |  |  |  | 0.841 | 0.921 | 0.638 | 0.813 | 1.02
